Read-outs that look alike come from different tables or passages of the source.

The conditions of series [1]: liquid diet, glucose (47% of caloric content) substituted; cited from earlier work.
In series [2] the test system is primary hippocampal cultures. Put plainly: Hippocampal microisland cultures with or without amyloid β1-42. The format is cell-based, Wistar embryos. Particulars: for neuronal cell number per microisland (mean): increase from a mean of 30. Here is the method: The serum free medium used from 0 to day 4 contained Neurobasal medium with B27 supplement diluted 50 fold (Life Technology, Gaithersburg, Md.) to which was added: 0.5 mM L-glutamine, 25 μM Na L-glutamate, 100 U/ml penicillin and 100 μg/ml streptomycin. After day 4, DMEM/F12 medium containing 5 μM insulin, 30 nM 1-thyroxine, […] progesterone, 30 nM Na selenite 100 U/ml penicillin and 100 μg/ml streptomycin were used.
The primary hippocampal cultures were removed from Wistar embryos on day 18 and dispersed by gentle agitation in a pipette. The suspension was centrifuged at 1,500×g for 10 min and the supernatant discarded. The pellet was resuspended in new media to a final cell count of […]. Ten μl of this suspension was pipetted into the center of poly D-lysine coated culture wells and the plates incubated at 38° C. for 4 hrs and then 400 μl of fresh Neurobasal media was added. After 2 days of incubation, half of the media was exchanged for fresh media and the incubation continued for 2 more days. After day 4, the medium was changed with DMEM/F12 medium containing 5 μM insulin, 30 nM 1-thyroxine, 20 nM progesterone, 30 nM Na selenite 100 U/ml penicillin and 100 μg/ml streptomycin. […] These media were exchanged 2 days later (day 8) and the cells were fixed on day 10 and stained with anti MAP2 (Boehringer Manheim, Indianapolis Ind.) to visualize neurons and vimentin and GFAP (Boehringer) to visualize glial cells.

Details of series [3]: species or system rats. Particulars: rat, in vivo, 30 min. Here is the method:
Control rats (n=2) were killed at 60 and 180 minutes after ingestion of yoghurt while triolide fed rats were killed at 80, 140, 150 and 155 minutes. Blood samples were taken for assay of (R)-3-hydroxybutyrate. Brains were funnel frozen and later extracted in perchloric acid and extracts neutralised and assayed. Blood levels of (R)-3-hydroxybutyrate were measured using a […] assay of Anal. Biochem (1983) 131, p478-482. 1.0 ml of a solution made up from 2-amino-2-methyl-1-propanol (100 mM pH 9.9, 0.094 g/10 ml), NAD^+ (30 mM, 0.199 g/10 ml) and EDTA (4 mM, 0.015 g/10 ml) was added to each of a number of cuvettes and 4 μl sample or (R)-3-hydroxybutyrate control.
The ability of orally administered (R)-3-hydroxybutyrate and the linear oligomers of Comparative examples 1 and 2 to raise blood ketone body levels was investigated as follows. Rats were fasted overnight and then gavaged with 100 μl/100 g bodyweight of 4M (R)-3-hydroxybutyrate brought to pH 7.4 using methyl glucamine. Plasma levels of (R)-3-hydroxybutyrate were measured at 0.62 mM after 30 minutes as compared to 3 mM when 9M (R)-3-hydroxybutyrate is used.
This procedure was repeated with 2M solutions of the mixtures (R)-3-hydroxybutyrate oligomers and their acetoacetyl esters described in Comparative Examples 1 and 2.

The conditions of series [4]: unesterified state, room temperature; cited from earlier work.
For series [5] the following is noted: human, cited from earlier work.
A short description of series [6]: Rats fed triolide in 'Hob-Nob' biscuit, ill effects. The format is in vivo. Particulars: two rats fed approximately 1.5 g triolide each in 'Hob-Nob' biscuit; after two weeks.
A short description of series [7]: Oral administration of triolide in yoghurt to rats, plasma (R)-3-hydroxybutyrate. Type of series: in vivo, Wistar rats. To be noted: about 0.4 g triolide in yoghurt. Here is the method:
The ability of orally administered triolide to raise blood ketone levels was investigated as follows. The day before the experiment commenced, 12 Wistar rats weighing 316+10 g were placed in separate cages. They had no access to food for 15 hours prior to presentation with triolide containing compositions, but water was provided ad libitum.
On the morning of the experiment 0.64 g of triolide was mixed with 5 g Co-op brand Black Cherry yoghurt in separate feeding bowls for 9 of the rats. The remaining 3 rats were given 5 g of the yoghurt without the triolide as controls. The yoghurt containing bowls were placed in the cages and the rats timed while they ate. Two of the three control rats ate all the yoghurt and four of the […] ate approximately half the provided amount. The remaining six rats slept.
Control rats (n=2) were killed at 60 and 180 minutes after ingestion of yoghurt while triolide fed rats were killed at 80, 140, 150 and 155 minutes. Blood samples were taken for assay of (R)-3-hydroxybutyrate. Brains were funnel frozen and later extracted in perchloric acid and extracts neutralised and assayed. Blood levels of (R)-3-hydroxybutyrate were measured using a […] assay of Anal. Biochem (1983) 131, p478-482. […]

The mark [8] stands for this setting: presence of (R)-3-hydroxybutyrate, whether β1-42 was present or not.

For the compound `CC(O)CCO` (racemic) [racemic 1,3 butandiol], in series [1], the “blood (R)-3-hydroxybutyrate concentration” value is reported as 0.98 mM, the blood acetoacetate concentration was 0.33 mM and the “rise of blood ketone concentration” value was “about 10 fold”.

With `C[C@@H](O)CC(=O)O` [(R)-3-hydroxybutyrate, (R)-3-hydroxybutyric acid], the “neuronal cell number per microisland (mean)” value in series [2] (8 mM (R)-3-hydroxybutyrate added to cultures containing amyloid β1-42) was determined as 70 cells per microisland; in series [2] (8 mM (R)-3-hydroxybutyrate, no amyloid β1-42), 70 cells per microisland. Further, in series [2] (setting [8]), the length of axons result is listed as “increased”. Besides, the “number of dendritic outgrowths” value in series [2] (setting [8]) is “increased”. Moreover, the “plasma level of (R)-3-hydroxybutyrate” value in series [3] turned out to be 3000 µM; in series [3] (pH 7.4), 620 µM.

For `CC(=O)CC(=O)O` [acetoacetate], the “half time of spontaneous decarboxylation to acetone” value in series [4] is on record as “about 30 days”.

`C[C@@H](O)CC(=O)[O-].[Na+]` [sodium salts of (R)-3-hydroxybutyrate]: the “toxicity on intravenous infusion” value in series [5] (in vivo, iv) is “non-toxic”. Further, in series [5] (intravenous infusion), the decreasing leucine oxidation result is recorded as “ineffective”; the “glucose free fatty acids and glycerol concentration” value is “capable of decreasing”.

The melting point is the temperature of the solid-liquid transition. For `C[C@@H]1CC(=O)O[C@H](C)CC(=O)O[C@H](C)CC(=O)O1` [triolide, (R,R,R)-4,8,12-trimethyl-1,5,9-trioxadodeca-2,6,10-trione], the melting point was 107 to 108 °C. Also, the ill effects result in series [6] was “no ill effects”. Further, in series [7], the “ill effects from ingestion of triolide” value is recorded as “no ill effects”.

The values above are taken from US7351736B2, “Therapeutic compositions (II)” (priority 1998, dated 2008).
